Reference: patent publication US5955481A, “Pyridine type thiazolidines” (Nissan Chemical Industries, Ltd., priority 1994, dated 1999)

Experiments:
[1] = test system: KKA^y mouse; assay: Measurement of Hypoglycemic Effect, KKAy mouse; type: in vivo; conditions: oral, 24 hours after administration, read-out: % decrease (percentage of reducing blood glucose)
Description: (§1) KK mouse and KKAy mouse, NIDDM models (male, 6-7 weeks old) (Nakamura, Proc. Jpn. Acad. 38, 348-352, 1962; Iwatsuka et al. Endocrinol Jpn, 17, 23-35, 1970) were purchased from Nihon Clea. They were allowed free access to high-calories' chow (CMF, Oriental Yeast) and water. Around 40 g-weighted mice were examined.
(§2) Blood (20 μl) collected from the retro-orbital sinus was diluted in 60 units heparin sodium-solution and was centrifuged in a microfuge. The supernatant was assayed. The glucose concentration was determined by glucose oxidase method (Glucose Analyzer II, Beckman).
(§3) All test-compounds suspended in 0.5% carboxy-methyl cellulose (CMC)-saline were orally administered in mice. Before and 24 hours after the administration, blood was collected from the retro-orbital sinus, and a blood glucose value was measured in the above-mentioned manner. The hypoglycemic activity was expressed by the percentage of reducing blood glucose calculated before and 24 hours after the administration.

[2] = test system: KK mouse; assay: Measurement of Hypoglycemic Effect, KK mouse; type: in vivo; conditions: for % decrease (percentage of reducing blood glucose): KK mouse, 30 mg/kg, oral, 24 hours after administration
Description: as §1, §2, §3

[3] = test system: bovine serum albumin (BSA); assay: Measurement of Anti-Glycation Effect; type: biochemical; conditions: for % decrease (anti-glycation effect, fluorescence per mg protein, percentage of the control): 5% BSA-0.5M G6P, 37° C., 10 day-incubation; for anti-glycation activities (in words): Test Example 2
Description: Because glycated protein is fluorescent, the amount of glycated protein can be determined using fluorescence, according to the previous reports (Doi et al., Proc. Natl. Acad. Sci. U.S.A., 89, 2873-2877, 1992: Mitsuhashi et al., Diabetes, vol. 42, 826-832, 1993). The experimental procedure was modified as follows. Five percent of bovine serum albumin (BSA) containing 0.5M glucose-6-phosphate-2Na (5% BSA-0.5M G6P) was filtration-sterilized (with 0.45 μm-pore size filter) and was incubated at 37° C.; positive control was incubated with 1% dimethyl sulfoxide (DMSO) at 37° C.; blank was incubated at 4° C. All test-compounds dissolved in DMSO (final concentration of DMSO was less than 1%) were added in 5% BSA-0.5M G6P. After 10 day-incubation 5% BSA-0.5M G6P with a compound, positive control and blank were dialyzed against 2L phosphate buffered saline for 24 hours (fractional molecular weight: 12,000-14,000).The dialyzed solution was diluted in water 4 times and was determined the fluorescence (ex. 370 nm-em. 440 nm). The protein concentration of the dialyzed solution (10 μL of which was diluted to 20 times with distilled water) was determined by Lowry-method and the fluorescence was expressed per mg protein. Control (100%) was positive control minus blank. Anti-glycation effect was calculated as the percentage of the control.

[4] = test system: AGE protein on arterial walls; conditions: rat suffering from diabetes; Science, vol. 232, p. 1629 (1986); cited from earlier work

| Compound | inhibition in vivo at 30 mg/kg [1] | % decrease (percentage of reducing blood glucose) [2] | % decrease (anti-glycation effect, fluorescence per mg protein, percentage of the control) ([3]; 100 μg/ml) | also measured |
| --- | --- | --- | --- | --- |
| Cc1oc(-c2ccccc2)nc1CCC(=O)c1ccc(CC2SC(=O)NC2=O)cc1 (stereo not shown) [CP-86325] | 39.5% | 39.4% | 10.3% | anti-glycation activities (in words) [3]: did not exhibit anti-glycation activities |
| Cc1c(C)c2c(c(C)c1O)CCC(C)(COc1ccc(CC3SC(=O)NC3=O)cc1)O2 (stereo not shown) [CS-045] | -3% | 24.2% | 10.1% | anti-glycation activities (in words) [3]: did not exhibit anti-glycation activities |
| Cc1oc(-c2ccccc2)nc1C(=O)COc1ccc(C=C2SC(=O)NC2=O)nc1 [I-1a-1, 5-((5-(2-oxo-2-(2-phenyl-5-methyl-4-oxazolyl)ethoxy)-2-pyridyl)methylidene)thiazolidin-2,4-dione] | 48.6% | 48.9% | 42.3% | – |
| COCOc1ccc(C=C2SC(=O)NC2=O)nc1 [I-1a-2] | – | – | 24.1% | – |
| O=C1NC(=O)C(=Cc2ccc(OCc3ccccc3)cn2)S1 [I-1a-3] | – | – | 34.1% | – |
| Cc1oc(-c2ccc(-c3ccccc3)cc2)nc1C(O)COc1ccc(C=C2SC(=O)NC2=O)nc1 (stereo not shown) [I-1a-43] | 47.3% | – | – | – |
| Cc1oc(-c2ccccc2)nc1C(=O)COc1ccc(CC2SC(=O)NC2=O)nc1 (stereo not shown) [I-2a-1, 5-((5-(2-oxo-2-(2-phenyl-5-methyl-4-oxazolyl)ethoxy)-2-pyridyl)methyl)thiazolidin-2,4-dione] | 50% | 65.1% | – | – |
| COCOc1ccc(CC2SC(=O)NC2=O)nc1 (stereo not shown) [I-2a-2] | 39.9% | – | – | – |
| Cc1cccc(-c2nc(C(=O)COc3ccc(CC4SC(=O)NC4=O)nc3)c(C)o2)c1 (stereo not shown) [I-2a-5] | 47.7% | – | – | – |
| Cc1oc(-c2ccc(F)cc2)nc1C(O)COc1ccc(CC2SC(=O)NC2=O)nc1 (stereo not shown) [I-2a-30] | 37.2% | – | – | – |
| Cc1oc(-c2ccc(-c3ccccc3)cc2)nc1C(O)COc1ccc(CC2SC(=O)NC2=O)nc1 (stereo not shown) [I-2a-31] | 52.2% | – | – | – |
| Cc1ccc(-c2nc(C(O)COc3ccc(CC4SC(=O)NC4=O)nc3)c(C)o2)cc1 (stereo not shown) [I-2a-32] | 35.4% | – | – | – |
| N=C(N)NN [aminoguanidine] | – | – | – | % decrease (anti-glycation effect, fluorescence per mg protein, percentage of the control) ([3]; 1 mM): 21.4%; % decrease (anti-glycation effect, fluorescence per mg protein, percentage of the control) ([3]; 10 mM): 48.9%; % decrease (anti-glycation effect, fluorescence per mg protein, percentage of the control) ([3]; 100 mM): 80.2%; prevention of formation of AGE protein on arterial walls (in words) [4]: prevents formation of AGE protein on arterial walls |
| COc1ccc(Cl)cc1C(=O)NCCc1ccc(S(=O)(=O)NC(=O)NC2CCCCC2)cc1 [glibenclamide] | -2.5% | -3.6% | – | hypoglycemic activity (in words) ([2]; Test Example 1, KK and KKAy mouse, 30 mg/kg oral): did not exhibit hypoglycemic activity |
